Tests used:
[1] = tested on: Transthyretin (Homo sapiens), P02766 [V50M]; experiment: (§1) Inhibition of recombinant Transthyretin V30M mutant (unknown origin) expressed in Escherichia coli expression system assessed as acid mediated fibril formation at 1.8 uM preincubated for 2 hrs followed by addition of acetate buffer solution and measured after 72 hrs by UV-vis spectrophotometry relative to control; conditions: time 74.0 hrs, values are per cent of control
[2] = tested on: Transthyretin (Homo sapiens), P02766 [V50M]; experiment: as §1, with “3.6” for “1.8”; conditions: time 74.0 hrs, values are per cent of control
Transthyretin [3] = biological target: T1, Transthyretin (Homo sapiens, UniProt P02766); experiment: as §1, with “recombinant wild-type” for “recombinant”, “Transthyretin” for “Transthyretin V30M mutant”; conditions: time 74.0 hrs, values are per cent of control
Transthyretin [4] = biological target: T1, Transthyretin; experiment: as §1, with “recombinant wild-type” for “recombinant”, “Transthyretin” for “Transthyretin V30M mutant”, “3.6” for “1.8”; conditions: time 74.0 hrs, values are per cent of control
Transthyretin [5] = biological target: T1, Transthyretin; experiment: Inhibition of recombinant wild-type Transthyretin (unknown origin) expressed in Escherichia coli expression system assessed as acid mediated fibril formation at 1.8 uM measured after 120 hrs by UV-vis spectrophotometry relative to control
Transthyretin [6] = biological target: T1, Transthyretin
Description: Covalent inhibition of urea-induced Transthyretin denaturation in human plasma preincubated for 1 hr followed by urea addition by Western blot analysis

[7] = tested on: Transthyretin (Homo sapiens), P02766 [V50M]; experiment: Inhibition of recombinant Transthyretin V30M mutant (unknown origin) assessed as acid mediated fibril formation at 7.2 uM relative to control

response, % of control [1]	response, % of control [2]	response, % of control (Transthyretin [3])	response, % of control (Transthyretin [4])	inhibition (Transthyretin [5])	IC50 (Transthyretin [6])	inhibition [7]	Structure (SMILES)
23.5%	6.6%	2.7%	0.3%	–	–	–	CCCC(=O)Oc1c(Br)cc(/C=C/c2c(C)n[nH]c2C)cc1Br
13.8%	3%	0.8%	0.3%	< 5%	470 nM	–	Cc1n[nH]c(C)c1/C=C/c1cc(Br)c(OC(=O)c2c(F)cc(F)cc2F)c(Br)c1
14.8%	3.5%	1.2%	0.3%	< 5%	570 nM	–	Cc1n[nH]c(C)c1/C=C/c1cc(Br)c(OC(=O)c2c(F)cccc2F)c(Br)c1
53.8%	21%	40.9%	11.1%	46%	–	–	O=C(O)c1ccc2nc(-c3cc(Cl)cc(Cl)c3)oc2c1
41.7%	11.1%	17.3%	9.2%	–	–	39%	Cc1n[nH]c(C)c1/C=C/c1cc(Br)c(O)c(Br)c1
15.7%	3.9%	5.7%	0.2%	< 5%	450 nM	–	Cc1n[nH]c(C)c1/C=C/c1cc(Br)c(OC(=O)c2ccc(F)cc2)c(Br)c1
18%	2.9%	2.2%	0.3%	–	–	–	CCC(C)C(=O)Oc1c(Br)cc(/C=C/c2c(C)n[nH]c2C)cc1Br (stereo unspecified)
